# Experimental data taken from patent US20230043198A1, “MICROBIOTA METABOLITES THAT SHAPE HOST PHYSIOLOGY” (Yale University, priority 2018, published 2023).
# Like-named read-outs stand apart in the source and are kept apart here.
# Columns and labels:
# [1] = biological target: GPR56/AGRG1 (Homo sapiens, UniProt Q9Y653); assay: GPR56 PRESTO-Tango; settings: titrating doses of pure amino acid
# [2] = test system: colon motility; assay: Intestinal motility by fecal output; type: in vivo, C57Bl/6 mice; settings: M. morganii colonized mice, 1% L-His in water for 2 weeks
# [3] = biological target: GPR97/AGRG3 (Homo sapiens, UniProt Q86Y34); assay: GPR97 PRESTO-Tango; settings: titrating doses of pure amino acid
# [4] = biological target: GPR56-ANT (a mutant lacking the extracellular domain) (Homo sapiens, UniProt Q9Y653); assay: PRESTO-Tango on GPR56 truncation mutant; settings: titrating doses of L-Phe
# [5] = biological target: T1, DRD2 (Homo sapiens, UniProt P14416); assay: DRD2 PRESTO-Tango; type: cell-based; settings: pure ligand
# [6] = test system: colon motility; settings: rodents; cited from earlier work
# [7] = biological target: T1, DRD2; settings: for phenethylamine as measured by DRD2 activation by cecal and colonic extracts: L-Phe deficient diet, MAOI
# [8] = in vivo; cited from earlier work
# [9] = biological target: DRD3 (Homo sapiens, UniProt P35462); assay: DRD3 PRESTO-Tango; type: cell-based; settings: pure ligand
# [10] = biological target: T2, DRD4 (Homo sapiens, UniProt P21917); assay: DRD4 PRESTO-Tango; type: cell-based; settings: pure ligand
# T2 sequence (P21917 1-419): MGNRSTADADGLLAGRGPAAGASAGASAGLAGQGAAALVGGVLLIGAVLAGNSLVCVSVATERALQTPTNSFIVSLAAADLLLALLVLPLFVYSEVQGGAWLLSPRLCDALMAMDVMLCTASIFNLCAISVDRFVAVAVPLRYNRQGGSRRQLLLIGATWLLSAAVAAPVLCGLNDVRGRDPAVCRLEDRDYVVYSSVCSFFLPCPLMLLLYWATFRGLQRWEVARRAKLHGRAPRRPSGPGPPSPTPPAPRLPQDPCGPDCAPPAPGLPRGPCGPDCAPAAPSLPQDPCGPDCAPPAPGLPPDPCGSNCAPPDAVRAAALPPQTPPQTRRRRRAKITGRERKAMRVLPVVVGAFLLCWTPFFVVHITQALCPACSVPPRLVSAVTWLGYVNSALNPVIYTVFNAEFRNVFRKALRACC
# T1 sequence (P14416 whole entry): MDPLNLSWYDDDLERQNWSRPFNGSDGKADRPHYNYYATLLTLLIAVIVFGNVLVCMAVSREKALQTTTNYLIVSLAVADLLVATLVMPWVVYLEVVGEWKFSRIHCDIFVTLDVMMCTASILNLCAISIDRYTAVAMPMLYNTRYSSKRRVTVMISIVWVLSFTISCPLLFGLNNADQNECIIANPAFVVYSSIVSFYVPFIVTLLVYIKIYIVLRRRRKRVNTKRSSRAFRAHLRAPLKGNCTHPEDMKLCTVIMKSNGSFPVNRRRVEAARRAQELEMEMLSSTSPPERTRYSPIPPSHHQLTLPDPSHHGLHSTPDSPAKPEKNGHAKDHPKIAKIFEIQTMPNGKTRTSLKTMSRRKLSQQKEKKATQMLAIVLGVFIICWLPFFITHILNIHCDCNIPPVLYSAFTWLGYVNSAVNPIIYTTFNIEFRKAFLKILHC
# GPR56/AGRG1, sequence (Q9Y653 26-693): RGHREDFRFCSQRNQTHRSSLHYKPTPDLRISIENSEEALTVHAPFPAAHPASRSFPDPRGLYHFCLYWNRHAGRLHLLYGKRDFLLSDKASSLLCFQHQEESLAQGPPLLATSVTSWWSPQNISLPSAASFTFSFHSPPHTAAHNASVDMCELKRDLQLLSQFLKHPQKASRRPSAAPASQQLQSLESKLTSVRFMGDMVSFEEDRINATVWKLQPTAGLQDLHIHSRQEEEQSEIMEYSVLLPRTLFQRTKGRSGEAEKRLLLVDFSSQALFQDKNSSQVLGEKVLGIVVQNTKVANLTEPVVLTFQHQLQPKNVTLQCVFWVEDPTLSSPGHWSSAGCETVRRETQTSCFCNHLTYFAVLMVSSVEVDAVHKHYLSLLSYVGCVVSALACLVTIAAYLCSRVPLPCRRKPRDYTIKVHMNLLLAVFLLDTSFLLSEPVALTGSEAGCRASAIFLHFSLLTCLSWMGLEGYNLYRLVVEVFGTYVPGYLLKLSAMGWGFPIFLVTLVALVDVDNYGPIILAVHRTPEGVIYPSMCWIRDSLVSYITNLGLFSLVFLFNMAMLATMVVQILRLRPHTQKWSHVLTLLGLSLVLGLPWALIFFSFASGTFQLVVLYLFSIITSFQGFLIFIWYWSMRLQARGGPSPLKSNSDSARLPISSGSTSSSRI
# DRD3, sequence (P35462 whole entry): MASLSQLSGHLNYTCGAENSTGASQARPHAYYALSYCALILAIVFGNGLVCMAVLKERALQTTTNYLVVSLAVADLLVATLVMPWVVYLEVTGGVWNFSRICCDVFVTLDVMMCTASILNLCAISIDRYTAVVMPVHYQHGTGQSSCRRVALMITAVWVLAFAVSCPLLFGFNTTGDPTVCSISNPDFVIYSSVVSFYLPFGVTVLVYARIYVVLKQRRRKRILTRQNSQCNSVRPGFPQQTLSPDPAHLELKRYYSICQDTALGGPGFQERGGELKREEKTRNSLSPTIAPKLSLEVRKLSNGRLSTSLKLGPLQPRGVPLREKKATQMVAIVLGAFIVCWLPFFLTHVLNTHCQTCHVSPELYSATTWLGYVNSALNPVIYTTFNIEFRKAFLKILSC
# GPR56-ANT (a mutant lacking the extracellular domain), sequence (Q9Y653 383-693 limits assumed, change not shown): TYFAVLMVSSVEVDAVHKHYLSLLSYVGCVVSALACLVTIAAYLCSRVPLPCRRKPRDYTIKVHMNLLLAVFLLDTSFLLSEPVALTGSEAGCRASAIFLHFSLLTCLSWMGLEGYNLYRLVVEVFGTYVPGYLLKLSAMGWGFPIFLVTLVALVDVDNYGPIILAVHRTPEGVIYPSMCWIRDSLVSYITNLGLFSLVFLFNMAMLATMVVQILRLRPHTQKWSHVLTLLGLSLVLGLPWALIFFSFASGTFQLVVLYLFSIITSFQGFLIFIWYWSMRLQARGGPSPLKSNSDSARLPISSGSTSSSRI
# GPR97/AGRG3, sequence (Q86Y34 21-549): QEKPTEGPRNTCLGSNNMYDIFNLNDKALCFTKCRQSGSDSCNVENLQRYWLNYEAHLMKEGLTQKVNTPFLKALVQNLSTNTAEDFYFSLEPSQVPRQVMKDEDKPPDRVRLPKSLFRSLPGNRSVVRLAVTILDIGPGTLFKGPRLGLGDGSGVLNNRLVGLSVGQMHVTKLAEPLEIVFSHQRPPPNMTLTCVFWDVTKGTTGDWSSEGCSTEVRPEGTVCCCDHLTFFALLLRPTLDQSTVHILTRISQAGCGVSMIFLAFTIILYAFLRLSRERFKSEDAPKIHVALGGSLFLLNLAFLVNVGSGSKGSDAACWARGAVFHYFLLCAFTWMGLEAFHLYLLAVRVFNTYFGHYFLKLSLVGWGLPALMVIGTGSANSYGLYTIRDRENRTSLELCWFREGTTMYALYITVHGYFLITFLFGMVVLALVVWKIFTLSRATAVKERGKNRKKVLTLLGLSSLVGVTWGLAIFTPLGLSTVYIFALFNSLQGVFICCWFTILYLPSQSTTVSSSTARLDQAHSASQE
smiles,measurement,setting,value
N[C@H](Cc1c[nH]cn1)C(=O)O [D-His],activation of GPR56/AGRG1,[1],no activity
N[C@H](Cc1ccccc1)C(=O)O [D-Phe],activation of GPR56/AGRG1,[1],no activity
N[C@H](Cc1c[nH]c2ccccc12)C(=O)O [D-Trp],activation of GPR56/AGRG1,[1],no activity
N[C@H](Cc1ccc(O)cc1)C(=O)O [D-Tyr],activation of GPR56/AGRG1,[1],no activity
"N[C@@H](Cc1c[nH]cn1)C(=O)O [L-His, L-histidine]",activation of GPR56/AGRG1,[1],no activity
same,fecal output upon supplementation with L-His,[2],further increased
"N[C@@H](Cc1ccccc1)C(=O)O [L-Phe, L-phenylalanine]",activation of GPR56/AGRG1,[1],stereoselectively activated
same,activation of GPR97/AGRG3,[3],activated
same,response of GPR56/AGRG1 truncation mutant lacking the extracellular domain,[4],failed to respond
"N[C@@H](Cc1c[nH]c2ccccc12)C(=O)O [L-Trp, L-tryptophan]",activation of GPR56/AGRG1,[1],no activity
"NCCc1ccc(O)c(O)c1 [dopamine, Dopamine]",activation of DRD2,[5],efficiently activated
"NCCc1c[nH]cn1 [histamine, Histamine]",effect of oral gavage on colon motility,[6],increase colon motility
NNCCc1ccccc1 [phenelzine],onset of lethargy after MAOI treatment,"C57Bl/6, mouse, in vivo",≤ 4 days
same,mortality after treatment with MAOI,"mice colonized with M. morganii, died before the seventh day of treatment",more than half
same,health after MAOI treatment,"mouse, in vivo",remained healthy
same,health after treatment with MAOI,"mouse, in vivo",appeared healthy
same,morbidity after treatment with MAOI,"mouse, in vivo",lethargic within days
same,DRD2 activation by cecal and colonic contents and serum,[7]; MAOI-treated M. morganii colonized mice,activated DRD2
same,phenethylamine as measured by DRD2 activation by cecal and colonic extracts,[7]; mice bi-colonized with C34 and M. morganii,significant levels of phenethylamine
same,phenethylamine as measured by DRD2 activation by cecal and colonic extracts,[7]; mice colonized with M. morganii alone,minimal phenethylamine
"NCCc1ccccc1 [phenethylamine, Phenethylamine]",activation of DRD2,[5],selective DRD2/DRD3/DRD4 agonists
same,crossing of the blood-brain barrier,[8],can readily cross
same,activation of DRD3,[9],selective DRD2/DRD3/DRD4 agonists
same,activation of DRD4,[10],selective DRD2/DRD3/DRD4 agonists
"NCCc1ccc(O)cc1 [tyramine, Tyramine]",activation of DRD2,[5],selective DRD2/DRD3/DRD4 agonists
same,activation of DRD3,[9],selective DRD2/DRD3/DRD4 agonists
same,activation of DRD4,[10],selective DRD2/DRD3/DRD4 agonists
